Measurements published in US20210371351A1, “MIXTURES COMPRISING AT LEAST TWO DIFFERENT NITRIFICATION INHIBITORS SELECTED FROM 2-(3,4-DIMETHYL-1H-PYRAZOL-1-YL)SUCCINIC ACID (DMPSA), 3,4-DIMETHYL PYRAZOLIUM GLYCOLATE (DMPG) AND OTHER COMPOUNDS” (BASF SE, priority 2017, published 2021).

Key:
nitrification [1] = assay: Example 3: soil column trial (soil Limburgerhof) with ammonium sulfate, DMPP, DMPSA or DMPP+DMPSA; leaching at 5° C., incubation 10 d or 20 d at 15° C.; NH4-N/NO3-N, % inhibition of NO3-N formation (Böhland), Colby; conditions: 0.05% DMPP, 0.45% DMPSA
Source text: The effect on NH4^+ retention and NH4^+ to NO3^− ratios in the soil after fertilization of ammonium sulfate with the addition of DMPP, DMPSA or a combination of DMPP and DMPSA was investigated in column trials simulating climatic conditions of spring time in central Europe. Soil Limburgerhof (pH(CaCl2) 6.8, texture: 73% sand; 24% silt, 3% clay) was filled dry into a glass column with an inner width of 4 cm. At the bottom 0.4 g cotton wool was placed above which a frit (Co. Robu, pore size 1) was placed above which 100 g of 2 mm sieved soil Limburgerhof was layered. The soil height in the column was about 7 cm. Before fertilization the soil was brought to about 60% of its water holding capacity (WHC) be adding 14.4 mL of deionized water. Per column 10 mg NH4—N as ammonium sulfate was fertilized or not (control) together or not with 0.05% DMPP (DMPP obtained from BASF SE), 0.45% DMPSA (DMPSA used as free acid obtained from BASF SE) and 0.05% DMPP plus 0.45% DMPSA (% of nitrification inhibitor w/w of NH4—N). Every treatment was replicated three times.
After fertilization, 50 mL demineralized water was carefully and slowly placed on top of each column which equals about 31 mm precipitation. After 24 h the eluate was collected and by sucking off the soil to bring it back to about 60% of its WHC. All handlings including soil preparation, fertilization and the temperature of the water for both wetting the soil and the artificial precipitation up to the collection of the eluate 24 h after fertilization was performed at 5° C.
Thereafter, the columns were incubated for 10 d or 20 d at constantly 15° C. in an incubator. After 7 d and 14 d, water was added by weight where needed to bring the soils uniformly to 60% WHC. After 10 d or 20 d, the soil was removed from the columns and extracted with 1% (w/w) K2SO4 solution by shaking for 2 h at room temperature. The filtrated extract was then analyzed for NH4^+ and NO3 colorimetrical by an autoanalyzer.
To calculate the inhibition of nitrate formation by the nitrification inhibitors during the incubation, the above-mentioned Böhland equation was used. To examine synergistic effects of the combination of DMPP+DMPSA the formula by Colby (Colby, S.R., “Calculating synergistic and antagonistic responses of herbicide Combinations”, Weeds, 15, pp. 20-22, 1967) was used. To determine background levels of NH4+ to NO3−, every treatment was also extracted immediately after fertilization and after leaching prior to the further incubation at 15° C. for 10 d or 20 d.

nitrification [2] = assay: Example 5: soil incubation in bottles with ammonium sulfate, DMPSA, DCD or mixtures, 5 to 15° C., 0 up to 56 days; recovery NH4 (RE/RC), net recovery NH4 (NE/NC), inhibition of NO3 formation (IE/IC, Böhland; Colby); design: unit not given here
Description: 100 g soil is filled into 500 ml plastic bottles (e.g. soil sampled from the field) and is moistened to 50% water holding capacity. The soil is incubated at 20° C. for two weeks to activate the microbial biomass. 1 ml test solution, containing the compositions and mixtures of the invention in the appropriate concentration, or DMSO and 5 to 10 mg nitrogen in the form of ammoniumsulfate-N is added to the soil and everything mixed well. Bottles are capped but loosely to allow air exchange. The bottles are then incubated at 5 to 15° C. for 0 up to 56 days.
For analysis, 300 ml of a 1% K2SO4-solution is added to the bottle containing the soil and shaken for 2 hrs in a horizontal shaker at 150 rpm. Then the whole solution is filtered through a Macherey-Nagel Filter MN 807′/. Ammonium and nitrate content is then analyzed in the filtrate in an autoanalyzer at 550 nm (Merck, AA11).
The Böhland equation is described in Böhland, H., et al. (1973) “Mittel zur Hemmung bzw. Regelung der Nitrifikation von Ammoniumstickstoff in Kulturböden”. DDR-Wirtschaftspatent (Economic patent of the German Democratic Republic) C 05c 169 727. Cited by: Peschke, H. (1985) “Zur Bewertung der inhibierenden Wirkung von Nitrifiziden im Boden”, Zbl. Mikrobiol. 140, pp. 583-588.

[3] = 10 days of incubation at 15° C.
[4] = 20 days of incubation at 15° C.

Substance: 2-(3,4-dimethyl-1H-pyrazol-1-yl)succinic acid and/or 2-(4,5-dimethyl-1H-pyrazol-1-yl)succinic acid [DMPSA]
- During incubation: % inhibition of NO3—N formation by NI acc. to Böhland equation (1973) (MV) (nitrification [1]; [3]): 14.2%
- Net NI effect % NH4 from fertilized NH4 (MV) (nitrification [1]; [3]): 6.88%
- Ratio NH4—N/NO3—N (MV) (nitrification [1]; [3]): 0.53
- Soil mg/100 g NH4—N (MV) (nitrification [1]; [3]): 3.16 mg/100 g
- Soil mg/100 g NO3—N (MV) (nitrification [1]; [3]): 6.30 mg/100 g
- During incubation: % inhibition of NO3—N formation by NI acc. to Böhland equation (1973) (MV) (nitrification [1]; [4]): 4.8%
- Net NI effect % NH4 from fertilized NH4 (MV) (nitrification [1]; [4]): 1.79%
- Ratio NH4—N/NO3—N (MV) (nitrification [1]; [4]): 0.02
- Soil mg/100 g NH4—N (MV) (nitrification [1]; [4]): 0.19 mg/100 g
- Soil mg/100 g NO3—N (MV) (nitrification [1]; [4]): 9.60 mg/100 g
- IE inhibition of NO3 formation (nitrification [2]; IT5° C., DAT10, % a.i.: DMPSA 0.5, DCD 1, DMPSA + DCD 0.5 + 1 (1:2)): 18
- IE inhibition of NO3 formation (nitrification [2]; IT5° C., DAT10, % a.i.: DMPSA 0.5, DCD 3, DMPSA + DCD 0.5 + 3 (1:6)): 18
- IE inhibition of NO3 formation (nitrification [2]; IT5° C., DAT20, % a.i.: DMPSA 0.5, DCD 1, DMPSA + DCD 0.5 + 1 (1:2)): 20
- IE inhibition of NO3 formation (nitrification [2]; IT5° C., DAT20, % a.i.: DMPSA 0.5, DCD 3, DMPSA + DCD 0.5 + 3 (1:6)): 20
- IE (inhibition of NO3 formation, Böhland) (nitrification [2]; IT5° C., DAT28, % a.i. DMPSA 0.25, DCD 1): 77
- IE (inhibition of NO3 formation, Böhland) (nitrification [2]; IT5° C., DAT28, % a.i. DMPSA 0.25, DCD 3): 77
- IE (inhibition of NO3 formation, Böhland) (nitrification [2]; IT5° C., DAT28, % a.i. DMPSA 0.30, DCD 0.05): 42
- IE (inhibition of NO3 formation, Böhland) (nitrification [2]; IT5° C., DAT28, % a.i. DMPSA 0.50, DCD 0.08): 41
- IE inhibition of NO3 formation (nitrification [2]; IT5° C., DAT28, % a.i.: DMPSA 0.50, DCD 0.0125, DMPSA + DCD 0.50 + 0.0125 (40:1)): 44
- IE inhibition of NO3 formation (nitrification [2]; IT5° C., DAT28, % a.i.: DMPSA 0.50, DCD 0.0143, DMPSA + DCD 0.50 + 0.0143 (35:1)): 44
- IE inhibition of NO3 formation (nitrification [2]; IT5° C., DAT28, % a.i.: DMPSA 0.50, DCD 0.0167, DMPSA + DCD 0.50 + 0.0167 (30:1)): 44
- IE inhibition of NO3 formation (nitrification [2]; IT5° C., DAT30, % a.i.: DMPSA 0.5, DCD 1, DMPSA + DCD 0.5 + 1 (1:2)): 66
- IE inhibition of NO3 formation (nitrification [2]; IT5° C., DAT30, % a.i.: DMPSA 0.5, DCD 3, DMPSA + DCD 0.5 + 3 (1:6)): 66
- IE (inhibition of NO3 formation, Böhland) (nitrification [2]; IT5° C., DAT42, % a.i. DMPSA 0.25, DCD 1): 75
- IE (inhibition of NO3 formation, Böhland) (nitrification [2]; IT5° C., DAT42, % a.i. DMPSA 0.25, DCD 3): 75
- IE (inhibition of NO3 formation, Böhland) (nitrification [2]; IT5° C., DAT42, % a.i. DMPSA 0.30, DCD 0.05): 55
- IE (inhibition of NO3 formation, Böhland) (nitrification [2]; IT5° C., DAT42, % a.i. DMPSA 0.50, DCD 0.08): 53
- IE (inhibition of NO3 formation, Böhland) (nitrification [2]; IT5° C., DAT56, % a.i. DMPSA 0.25, DCD 1): 83
- IE (inhibition of NO3 formation, Böhland) (nitrification [2]; IT5° C., DAT56, % a.i. DMPSA 0.25, DCD 3): 83
- IE (inhibition of NO3 formation, Böhland) (nitrification [2]; IT5° C., DAT56, % a.i. DMPSA 0.30, DCD 0.05): 63
- IE inhibition of NO3 formation (nitrification [2]; IT10° C., DAT10, % a.i.: DMPSA 0.5, DCD 1, DMPSA + DCD 0.5 + 1 (1:2)): 70
- IE inhibition of NO3 formation (nitrification [2]; IT10° C., DAT10, % a.i.: DMPSA 0.5, DCD 3, DMPSA + DCD 0.5 + 3 (1:6)): 70
- IE inhibition of NO3 formation (nitrification [2]; IT10° C., DAT20, % a.i.: DMPSA 0.5, DCD 1, DMPSA + DCD 0.5 + 1 (1:2)): 7
- IE inhibition of NO3 formation (nitrification [2]; IT10° C., DAT20, % a.i.: DMPSA 0.5, DCD 3, DMPSA + DCD 0.5 + 3 (1:6)): 7
- IE (inhibition of NO3 formation, Böhland) (nitrification [2]; IT10° C., DAT28, % a.i. DMPSA 0.25, DCD 1): 59
- IE (inhibition of NO3 formation, Böhland) (nitrification [2]; IT10° C., DAT28, % a.i. DMPSA 0.25, DCD 3): 59
